One molecule from patent publication US20220132847A1, “CINNOLINIUM COMPOUNDS FOR USE IN A METHOD OF CONTROLLING UNWANTED PLANT GROWTH” (SYNGENTA CROP PROTECTION AG, priority 2019, published 2022) can be followed below.

Holding throughout (assay): Post-emergence efficacy, glasshouse
Type in all cases: in vivo

One assay deals with Setaria faberi (SETFA). As to conditions: Setaria faberi, post-emergence, 312 h; Application Rate 1000 g/Ha; evaluated after 13 days; 100=total damage to plant, 0=no damage to plant; read-out: Control of weed species after post-emergence application, SETFA. The method in brief: (§1)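 Plants grown 14 days in glasshouse (24/16° C, 14 h light, 65% humidity), then sprayed post-emergence with active ingredient in IF50 solvent/emulsifier mix, diluted in 0.25% or 1% Empicol ESC70 + 1% ammonium sulphate. Damage scored 13 days later, 0–100 (100 = total damage).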

For assay [1], the system named is Echinochloa crus-galli (ECHCG). As to conditions: Echinochloa crus-galli, post-emergence, 312 h; Application Rate 1000 g/Ha; evaluated after 13 days; 100=total damage to plant, 0=no damage to plant; read-out: Control of weed species after post-emergence application, ECHCG. The method in brief: as §1
Assay [2] concerns Amaranthus palmeri (AMAPA). As to conditions: Amaranthus palmeri, post-emergence, 312 h; Application Rate 1000 g/Ha; evaluated after 13 days; 100=total damage to plant, 0=no damage to plant; read-out: Control of weed species after post-emergence application, AMAPA. The method in brief: as §1
Assay [3] concerns Euphorbia heterophylla (EPHHL). As to conditions: Euphorbia heterophylla, post-emergence, 312 h; Application Rate 1000 g/Ha; evaluated after 13 days; 100=total damage to plant, 0=no damage to plant; read-out: Control of weed species after post-emergence application, EPHHL. The essentials: as §1
The test system of assay [4] is Digitaria sanguinalis (DIGSA). As to conditions: Digitaria sanguinalis, post-emergence, 312 h; Application Rate 1000 g/Ha; evaluated after 13 days; 100=total damage to plant, 0=no damage to plant; read-out: Control of weed species after post-emergence application, DIGSA. The essentials:
as §1

In assay [5] the test system is Chenopodium album (CHEAL). As to conditions: Chenopodium album, post-emergence, 312 h; Application Rate 1000 g/Ha; evaluated after 13 days; 100=total damage to plant, 0=no damage to plant; read-out: Control of weed species after post-emergence application, CHEAL. The essentials:
as §1

In assay [6] the test system is Ipomoea hederacea (IPOHE). As to conditions: Ipomoea hederacea, post-emergence, 312 h; Application Rate 1000 g/Ha; evaluated after 13 days; 100=total damage to plant, 0=no damage to plant; read-out: Control of weed species after post-emergence application, IPOHE. The essentials: as §1
A further assay has as its system Lolium perenne (LOLPE). As to conditions: Lolium perenne, post-emergence, 312 h; Application Rate 1000 g/Ha; evaluated after 13 days; 100=total damage to plant, 0=no damage to plant; read-out: Control of weed species after post-emergence application, LOLPE. The method in brief: as §1
A further assay deals with Eleusine indica (ELEIN). As to conditions: Eleusine indica, post-emergence, 312 h; Application Rate 1000 g/Ha; evaluated after 13 days; 100=total damage to plant, 0=no damage to plant; read-out: Control of weed species after post-emergence application, ELEIN. The method in brief: as §1

As to `CONC(=O)c1c[n+](C)nc2ccccc12` [Compound A4, N-methoxy-2-methyl-cinnolin-2-ium-4-carboxamide 2,2,2-trifluoroacetate], the pest or weed control at 1000 g/ha was 10% in the assay with Setaria faberi (SETFA); 10% in assay [1]; 10% in assay [2]; 50% in assay [3]; 0% in assay [4]; 40% in [5]. Further, the figures for the pest or weed control at 1000 g/ha (in assay [6]; in the assay on Lolium perenne (LOLPE); with Eleusine indica (ELEIN)) were 20%, 0% and 20%, respectively.
